The values below come from patent US11053233B2, “Solid form of (S)-[2-chloro-4-fluoro-5-(7-morpholin-4-yl-quinazolin-4-yl)phenyl]-(6-methoxy-pyridazin-3-yl)-methanol” (Merck Patent GmbH, priority 2017, dated 2021).

Converted amounts (≈) assume the structure as drawn.

Series [1] can be described thus: Solubility measurements in biorelevant media (shake flask 24 h, HPLC). The class given is physicochemical. As to the method: Solubility measurements were carried out in accordance with the method described further below.
• Test media: • SGF (Simulated gastric fluid without pepsin) pH 1.2: • 2.0 g sodium chloride were placed in a 1 L volumetric flask and dissolved in around 500 mL water. 80 mL of 1 M hydrochloric acid solution were added and the volume made up to 1 L. • The resulting SGF solution contains: 34.2 mM sodium chloride • FaSSIF (Fasted State Simulated Intestinal Fluid) pH 6.5: • 0.224 g SIF powder (obtained from biorelevant.com) were dissolved in FaSSIF buffer in a 100 mL volumetric flask and made up to volume. The FaSSIF medium was allowed to equilibrate for 2 h at ambient room temperature and used within 48 h of preparation. FaSSIF buffer can be made up by dissolving 0.42 g NaOH pellets, 3.44 g of monobasic sodium phosphate anhydrous and 6.19 g sodium chloride in about 0.9 L of purified water, adjusting the pH to […] with 1 N NaOH or 1 N HCl and making up the volume to 1 L. • The resulting FaSSIF contains: 3 mM sodium taurocholate; 0.75 mM lecithin; 105.9 mM sodium chloride; 28.4 mM monobasic sodium phosphate and 8.7 mM sodium hydroxide. • FeSSIF (Fed State Simulated Intestinal Fluid) pH 5.0: • 1.12 g SIF powder (biorelevant.com) were dissolved in FeSSIF buffer in a 100 mL volumetric flask and made up to volume. It was used within 48 h of preparation. FeSSIF buffer can be made up by dissolving 4.04 g NaOH pellets, 8.65 g of glacial acetic acid and 11.87 g sodium chloride in about 0.9 L of purified water, adjusting the pH to […] with 1 N NaOH or 1 N HCl and making up the volume to 1 L. • The resulting FeSSIF contains: 15 mM sodium taurocholate; 3.75 mM lecithin; 203.2 mM sodium chloride; 101.0 mM sodium hydroxide and 144.1 mM acetic acid. • Solubility Measurements: • Excess amount of substance was weighed into Uniprep® Whatman vials, to which 1 mL of test medium were added. The suspension was shaken for 24 h at 450 rpm (rounds per minute) at 37° C. The pH was measured at 1 h, 6 h and 24 h and the vials were checked for undissolved compound. The pH of the medium was adjusted wherever necessary. After 24 h, the solutions were filtered through 0.2 μm PTFE membrane filter and the filtrates analysed using HPLC after suitable dilutions. • HPLC: • Apparatus: Agilent 1100 • Column: Chromolith® Performance RP-18e100-3 mm, Art. 1.52001 (h) • Wavelength: 282 nm • Injection volume: 5 μL • Column Oven: 37° C. • Auto sampler: 37° C. • Eluent A for HPLC: Formic Acid:Ultrapure water (1:999;v/v) • Eluent B for HPLC: Formic Acid+Acetonitrile (1:999;v/v) • HPLC-Gradient: […]

Series [2] can be described thus: Long-term DS (drug substance) stability investigations. The following applies: up to 40° C./75% relative humidity. The class given is physicochemical.
Series [3] has as its system DNA-PK autophosphorylation in cancer cell lines.
Series [4] concerns the target DNA-dependent protein kinase (DNA-PK) (Homo sapiens, UniProt P78527). Nature of the series: Inhibition of DNA-PK activity. The format is biochemical.
Series [5] relates to NCI-H460. The following applies: 150 mg/kg oral plus IR 5 x 2 Gy. On the procedure:
(§1) The therapeutic relevance of DNA-PK inhibition by the drug substance as such was investigated in vivo in combination with ionizing radiation (IR), a clinically established DSB-inducing treatment. The drug substance was tested for activity in six xenograft mouse models of human cancer. The models were chosen from different cancer indications (colon, lung, head and neck, pancreatic), and histological subtypes (adeno, squamous, large cell). Ionizing radiation was administered using a fractionated schedule of 2 Gy per day administered over five consecutive days (total radiation dose=10 Gy). […] 10 min prior to each fraction of radiation (ONC397-1-2AZ, ONC397-1-3AZ, ONC397-1-4AZ, ONC397-1-5AZ, ONC397-1-8AZ).
(§2) The radiotherapy enhancing effect was quantified across the tested models by the time to reaching 400% initial volume for the 150 mg/kg study arms. The resulting Kaplan-Meier plots were compared by the log-rank test.

The test system of series [6] is A549. The settings on record: 150 mg/kg oral plus IR 5 x 2 Gy. As to the method:
as §1, §2

The subject of series [7] is HCT116. The following applies: 150 mg/kg oral plus IR 5 x 2 Gy. On the procedure:
as §1, §2

Series [8] relates to xenograft mouse models of human cancer (colon, lung, head and neck, pancreatic). Kind of series: Combination with ionizing radiation in six xenograft mouse models of human cancer. The settings on record: oral, 10 min prior to each fraction; IR 2 Gy per day over five days (10 Gy); all models. The format is in vivo. As to the method: as §1, §2
In general terms: A xenograft is tissue or cells of one species grown in another, often human tumour cells in immunodeficient mice.

Consider `COc1ccc([C@@H](O)c2cc(-c3ncnc4cc(N5CCOCC5)ccc34)c(F)cc2Cl)nn1` [anhydrous disordered crystalline form, (S)-[2-chloro-4-fluoro-5-(7-morpholin-4-yl-quinazolin-4-yl)phenyl]-(6-methoxy-pyridazin-3-yl)-methanol], for which the “Solubility compared with the anhydrous ordered crystalline compound” value was “more than double the solubility of the crystalline form” in series [1] (at pH 1.2) and “significantly better” in series [1] (general statement). Further, the solubility at 24 h was 10 ± 1 µg/mL (≈ 20.8 µM) in series [1] (fasted state simulated intestinal fluid (FaSSIF), pH 6.5, thermodynamic from solid, FaSSIF, pH of medium 6.5, 37 °C); 56 ± 2 µg/mL (≈ 116 µM) in series [1] (fed state simulated intestinal fluid (FeSSIF), pH 5, thermodynamic from solid, FeSSIF, pH of medium 5.0, 37 °C); 2020 ± 67 µg/mL (≈ 4200 µM) in series [1] (simulated gastric fluid without pepsin (SGF), pH 1.2, simulated gastric fluid, thermodynamic from solid, SGF, pH of medium 1.2, 37 °C). For the same compound, in series [2], the “Chemical and physical stability” value was “high chemical and physical stability”.

Consider `COc1ccc([C@@H](O)c2cc(-c3ncnc4cc(N5CCOCC5)ccc34)c(F)cc2Cl)nn1` [drug substance, (S)-[2-chloro-4-fluoro-5-(7-morpholin-4-yl-quinazolin-4-yl)phenyl]-(6-methoxy-pyridazin-3-yl)-methanol], for which the “Inhibition of DNA-PK autophosphorylation” value in series [3] is reported as “potent inhibition”. Further, the “Inhibition of DNA-PK activity” value in series [4] is “potent and selective inhibitor”. Further, the “Enhancement ratio (time to reaching 400% initial volume)” value in series [5] was 2.6; in series [6], 1.5; in series [7], 1.5. In addition, the “Enhancement of the radiation effect” value in series [8] is “strong enhancement of the radiation effect”.

For orientation: solubility means the dissolved amount per volume that the medium holds. Read a low solubility as little dissolved substance.
